Literature values as cited in patent US8067434B2, “Compounds and methods for development of Ret modulators” (Plexxikon Inc., priority 2003, dated 2011).

How the values were obtained:
Ret = conditions: DAergic neuron cultures
[1] = test system: TT cells, with RetC634 mutant; conditions: TT cells in RPMI medium, varying concentrations
Ret transformed NIH3T3 = conditions: Ret transformed NIH3T3, treatment with inhibitor
Ret kinase = conditions: incubation with the inhibitor

Row | SMILES | cell growth [1] | other results
1 | C[C@]12O[C@H](C[C@]1(O)C(=O)O)n1c3ccccc3c3c4c(c5c6ccccc6n2c5c31)CNC4=O [Compound K-252b, K-252b] | – | normal functioning of Ret in GDNF-induced differentiation (Ret): inhibited
2 | Cc1ccc(NC(=O)c2ccc(CN3CCN(C)CC3)cc2)cc1Nc1nccc(-c2cccnc2)n1 [STI571] | inhibiting cell growth | –
3 | C=CCNC1=C2C[C@@H](C)C[C@H](OC)[C@H](O)[C@@H](C)/C=C(\C)[C@H](OC(N)=O)[C@@H](OC)/C=C\C=C(/C)C(=O)NC(=CC1=O)C2=O [allyl-geldanamycin] | inhibiting cell growth | –
4 | O=c1c(-c2ccc(O)cc2)coc2cc(O)cc(O)c12 [genistein] | inhibiting cell growth | –
5 | CO[C@H]1[C@@H](OC)C[C@H](C)[C@@H](OC)C2=CC(=O)C=C(NC(=O)/C(C)=C/C=C\[C@H](OC)[C@@H](OC(N)=O)/C(C)=C/[C@@H]1C)C2=O [herbimycin A] | – | cellular phenotype (Ret transformed NIH3T3): reverted the cellular phenotype to a more untransformed flat morphology; intracellular Ret kinase activity (Ret kinase): decreased
